ChEMBL document CHEMBL1144431, “6-Hydroxy-1,2,3,4-tetrahydro-isoquinoline-3-carboxylic acid mimics active conformation of tyrosine in opioid peptides” (Bioorg Med Chem Lett, 2005)
Residues, ends and D or L forms follow the SMILES beside them.

What was measured:
[1] = target: Mu-type opioid receptor (Rattus norvegicus, UniProt P33535); experiment: Inhibition of [3H]naloxone binding to rat brain homogenate Opioid receptor mu
[2] = target: Delta-type opioid receptor (Rattus norvegicus, UniProt P33533); experiment: Inhibition of [3H]naloxone binding to rat brain homogenate Opioid receptor delta
Delta-type opioid receptor, sequence (P33533 whole entry): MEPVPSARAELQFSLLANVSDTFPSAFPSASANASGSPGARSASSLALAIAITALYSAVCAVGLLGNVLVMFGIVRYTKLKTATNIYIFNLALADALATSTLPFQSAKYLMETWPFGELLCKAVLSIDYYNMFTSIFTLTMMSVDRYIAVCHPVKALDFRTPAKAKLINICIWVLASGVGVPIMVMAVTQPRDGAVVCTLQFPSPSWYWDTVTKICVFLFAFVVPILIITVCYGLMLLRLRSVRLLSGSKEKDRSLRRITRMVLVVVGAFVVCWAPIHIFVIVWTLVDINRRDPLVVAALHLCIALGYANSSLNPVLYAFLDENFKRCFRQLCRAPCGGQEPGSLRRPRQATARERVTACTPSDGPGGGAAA

Mu-type opioid receptor, sequence (P33535 whole entry): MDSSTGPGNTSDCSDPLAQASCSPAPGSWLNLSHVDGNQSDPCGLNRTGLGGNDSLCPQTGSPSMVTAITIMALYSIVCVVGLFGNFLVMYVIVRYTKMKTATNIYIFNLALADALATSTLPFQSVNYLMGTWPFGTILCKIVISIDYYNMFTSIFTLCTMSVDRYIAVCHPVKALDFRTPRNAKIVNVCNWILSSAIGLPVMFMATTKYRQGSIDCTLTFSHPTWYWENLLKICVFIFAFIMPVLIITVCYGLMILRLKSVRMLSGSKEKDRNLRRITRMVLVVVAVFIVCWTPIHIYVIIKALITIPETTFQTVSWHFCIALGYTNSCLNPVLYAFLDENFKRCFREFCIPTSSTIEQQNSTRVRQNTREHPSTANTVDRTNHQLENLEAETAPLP

Row | Structure (SMILES) | Ki [1] [nM] | Ki [2] [nM]
1 | CC(C)[C@H](NC(=O)[C@H](CC(=O)O)NC(=O)[C@H](Cc1ccccc1)NC(=O)[C@@H](C)NC(=O)[C@@H]1Cc2cc(O)ccc2CN1)C(=O)N[C@H](C(=O)NCC(N)=O)C(C)C | > 10000 | 10.4
2 | C[C@@H](NC(=O)[C@@H](N)Cc1ccc(O)cc1)C(=O)N[C@@H](Cc1ccccc1)C(=O)NCC(=O)N[C@@H](Cc1ccc(O)cc1)C(=O)N1CCC[C@H]1C(=O)N[C@@H](CO)C(N)=O [DERMORPHIN] | 2.4 | 
3 | CC(C)[C@H](NC(=O)[C@H](CC(=O)O)NC(=O)[C@H](Cc1ccccc1)NC(=O)[C@@H](C)NC(=O)[C@@H](N)Cc1ccc(O)cc1)C(=O)N[C@H](C(=O)NCC(N)=O)C(C)C [DELTORPHIN C] | 1700 | 0.73
4 | C[C@@H](NC(=O)[C@@H]1Cc2ccc(O)cc2CN1)C(=O)N[C@@H](Cc1ccccc1)C(=O)NCC(=O)N[C@@H](Cc1ccc(O)cc1)C(=O)N1CCC[C@H]1C(=O)N[C@@H](CO)C(N)=O | 1620 | > 10000
5 | C[C@@H](NC(=O)[C@@H]1Cc2cc(O)ccc2CN1)C(=O)N[C@@H](Cc1ccccc1)C(=O)NCC(=O)N[C@@H](Cc1ccc(O)cc1)C(=O)N1CCC[C@H]1C(=O)N[C@@H](CO)C(N)=O | 253 | > 10000
6 | C[C@@H](NC(=O)[C@@H]1Cc2cc(O)ccc2CN1)C(=O)N[C@@H](Cc1ccccc1)C(=O)N[C@@H](Cc1ccccc1)C(N)=O | 57.8 | > 10000
7 | C[C@@H](NC(=O)[C@@H](N)Cc1ccc(O)cc1)C(=O)N[C@@H](Cc1ccccc1)C(=O)N[C@@H](Cc1ccccc1)C(N)=O (HELM PEPTIDE1{Y.[dA].F.F.[am]}$$$$V2.0) |  | 1820
8 | NC(=O)[C@H](Cc1ccccc1)NC(=O)[C@H](Cc1ccccc1)NC(=O)[C@@H]1CCCN1C(=O)[C@@H]1Cc2cc(O)ccc2CN1 | 216 | > 10000
9 | CC(C)[C@H](NC(=O)[C@H](CC(=O)O)NC(=O)[C@H](Cc1ccccc1)NC(=O)[C@@H](C)NC(=O)[C@@H]1Cc2ccc(O)cc2CN1)C(=O)N[C@H](C(=O)NCC(N)=O)C(C)C | > 10000 | 304
